Literature values in patent US10258612B2, “Mitochondrial lipid permeable iron chelators for treating and preventing ischemia/reperfusion (I/R) injury in the heart following an ischemic event” (Northwestern University, priority 2015, dated 2019).

Settings: cited from earlier work

In the case of c1ccc(-c2ccccn2)nc1 [BPD, 2,2′-bipyridyl], the “log P” value is listed as 1.5.
